Data published in PMC10768847 (Journal of medicinal chemistry, 2023).
Where two headings read alike, the source gives them in different places. Where a SMILES comes first, the peptide text is derived from it. [ ]: non-standard residue; d: D form. The star is where a group is joined. Orn(α-tetramethylguanidino) = CN(C)C(=N[C@@H](CCCN)C(=O)*)N(C)C; Arg(Me) = CNC(=N)NCCC[C@H](N)C(=O)O; dLeu(ol) = CC(C)C[C@@H](N)CO; NHIsopentyl = CC(C)CCN*

Columns and labels:
E. coli BL21 RF2(R262C) = experiment: Minimum inhibitory concentration against release factor mutant strain; assay type: cell-based, Escherichia coli; settings: Table 5; release factor mutant resistant to Api-137
E. coli BL21 = assay type: cell-based, Escherichia coli; settings: for MIC: microbroth dilution, 96-well plates, E. coli BL21 OD600 = 0.002 in 0.3 Tryptic Soy Broth, overnight at 37 °C, visible cell density, run in duplicate; for Fold change: MIC compared to that of Api-137

| Molecule | Fold change (E. coli BL21; Table 3) | MIC (E. coli BL21; Table 3) | other results |
| --- | --- | --- | --- |
| CC[C@H](C)[C@H](NC(=O)[C@H](Cc1ccc(O)cc1)NC(=O)[C@@H](NC(=O)[C@@H]1CCCN1C(=O)[C@H](CCCNC(=N)N)NC(=O)[C@H](CC(N)=O)NC(=O)[C@H](CC(N)=O)NC(=O)[C@H](CCCN)N=C(N(C)C)N(C)C)C(C)C)C(=O)N1CCC[C@H]1C(=O)N[C@@H](CCCNC(=N)N)C(=O)N1CCC[C@H]1C(=O)N[C@@H](CCCNC(=N)N)C(=O)N1CCC[C@H]1C(=O)N1CCC[C@H]1C(=O)N[C@@H](Cc1c[nH]cn1)C(=O)N1CCC[C@H]1C(=O)N[C@@H](CCCNC(=N)NC)C(=O)N[C@@H](CC(C)C)C(=O)O [Compound 3] ({Orn(α-tetramethylguanidino)}-NNRPVYIPRPRPPHP[Arg(Me)]L-OH) | – | – | minimum inhibitory concentration, BL21 RF2(R262C) (E. coli BL21 RF2(R262C)): >25 |
| CC[C@H](C)[C@H](NC(=O)[C@H](Cc1ccc(O)cc1)NC(=O)[C@@H](NC(=O)[C@@H]1CCCN1C(=O)[C@H](CCCNC(=N)N)NC(=O)[C@H](CC(N)=O)NC(=O)[C@H](CC(N)=O)NC(=O)[C@H](CCCN)N=C(N(C)C)N(C)C)C(C)C)C(=O)N1CCC[C@H]1C(=O)N[C@@H](CCCNC(=N)N)C(=O)N1CCC[C@H]1C(=O)N[C@@H](CCCNC(=N)N)C(=O)N1CCC[C@H]1C(=O)N1CCC[C@H]1C(=O)N[C@@H](Cc1c[nH]cn1)C(=O)N1CCC[C@H]1C(=O)N[C@@H](CCCNC(=N)N)C(=O)NCCC(C)C [Compound 4] ({Orn(α-tetramethylguanidino)}-NNRPVYIPRPRPPHPR-NHIsopentyl) | – | – | MIC (E. coli BL21; Table 1): > 40 µM |
| CC[C@H](C)[C@H](NC(=O)[C@H](Cc1ccc(O)cc1)NC(=O)[C@@H](NC(=O)[C@@H]1CCCN1C(=O)[C@H](CCCNC(=N)N)NC(=O)[C@H](CC(N)=O)NC(=O)[C@H](CC(N)=O)NC(=O)[C@H](CCCN)N=C(N(C)C)N(C)C)C(C)C)C(=O)N1CCC[C@H]1C(=O)N[C@@H](CCCNC(=N)N)C(=O)N1CCC[C@H]1C(=O)N[C@@H](CCCNC(=N)N)C(=O)N1CCC[C@H]1C(=O)N1CCC[C@H]1C(=O)N[C@@H](Cc1c[nH]cn1)C(=O)N1CCC[C@H]1C(=O)N[C@@H](CCCNC(=N)N)C(=O)N[C@@H](CO)CC(C)C [Compound 6] ({Orn(α-tetramethylguanidino)}-NNRPVYIPRPRPPHPR[dLeu(ol)]) | – | – | Fold change (E. coli BL21; Table 1): 62–128 |
| CC[C@H](C)[C@H](NC(=O)[C@H](Cc1ccc(O)cc1)NC(=O)[C@@H](NC(=O)[C@@H]1CCCN1C(=O)[C@H](CCCNC(=N)N)NC(=O)[C@H](CC(N)=O)NC(=O)[C@H](CC(N)=O)NC(=O)[C@H](CCCN)N=C(N(C)C)N(C)C)C(C)C)C(=O)N1CCC[C@H]1C(=O)N[C@@H](CCCNC(=N)N)C(=O)N1CCC[C@H]1C(=O)N[C@@H](CCCNC(=N)N)C(=O)N1CCC[C@H]1C(=O)N1CCC[C@H]1C(=O)N[C@@H](Cc1c[nH]c2ccccc12)C(=O)N1CCC[C@H]1C(=O)N[C@@H](CCCNC(=N)N)C(=O)N[C@@H](CC(C)C)C(=O)O [Compound 14] ({Orn(α-tetramethylguanidino)}-NNRPVYIPRPRPPWPRL-OH) | – | – | Fold change (E. coli BL21; Table 2): 8–16; MIC (E. coli BL21; Table 2): 1.2 to 2.5 µM |
| gu-ONNRPVYIPRPRPPHPRL-OH [Compound 15] | 4 | 0.62 µM | – |
| gu-ONNRPVYIPRPRPPHPRL-OH [Compound 18] | 4 | 0.62 µM | – |
| gu-ONNRPVYIPRPRPPHPRL-OH [Compound 21] | 2–4 | – | – |
| gu-ONNRPVYIPRPRPPHPRL-OH [Compound 22] | 2–4 | – | – |
| gu-ONNRPVYIPRPRPPHPRL-OH [Compound 23] | 2 | 0.16 to 0.3 µM | – |
| gu-ONNRPVYIPRPRPPHPRL-OH [Compound 25] | – | 0.08 to 0.16 µM | – |
| gu-ONNRPVYIPRPRPPHPRL-OH [Compound 26] | 1 | 0.08 to 0.16 µM | – |
